Test results from BindingDB's records for patent US11518761 (Vyera Pharmaceuticals, 2022).

Molecular target: T1, Calmodulin-domain protein kinase 1 (Toxoplasma gondii, UniProt Q9BJF5)
T1 sequence (Q9BJF5 whole entry): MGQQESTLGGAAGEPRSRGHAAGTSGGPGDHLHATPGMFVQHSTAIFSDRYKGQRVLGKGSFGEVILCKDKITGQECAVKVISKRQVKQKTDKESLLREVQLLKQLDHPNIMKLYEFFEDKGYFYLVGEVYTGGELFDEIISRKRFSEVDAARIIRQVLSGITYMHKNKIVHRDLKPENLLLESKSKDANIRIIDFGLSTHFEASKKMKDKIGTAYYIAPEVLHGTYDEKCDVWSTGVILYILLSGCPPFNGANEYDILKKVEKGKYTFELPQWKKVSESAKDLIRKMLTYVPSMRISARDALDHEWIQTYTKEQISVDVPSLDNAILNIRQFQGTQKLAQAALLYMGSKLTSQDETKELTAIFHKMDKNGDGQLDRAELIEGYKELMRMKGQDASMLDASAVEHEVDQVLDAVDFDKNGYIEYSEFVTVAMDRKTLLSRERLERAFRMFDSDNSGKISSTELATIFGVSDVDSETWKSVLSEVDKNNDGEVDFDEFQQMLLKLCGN
Assay: Inhibition Assay
Description: Certain of the compounds prepared as described above were assayed to determine their IC50 for inhibition of T. gondii CDPK1 (tgCDPK1). At least three independent replicates of the assay were conducted for each compound tested.

Row | SMILES | IC50
1 | N#Cc1cccc(Oc2nn([C@H]3C[C@H](F)C3)c3ncnc(N)c23)c1 [US11518761, Example 173] | 49.8 nM
2 | N#Cc1cccc(Oc2nn([C@H]3C[C@H](O)C3)c3ncnc(N)c23)c1 [US11518761, Example 178] | 79.6 nM
